The values below come from patent US20260306527A1, “PRMT INHIBITOR COMPOUNDS AND THE USES THEREOF” (Purdue Research Foundation, priority 2023, published 2026).

Common to all, as to format: biochemical
Assay [1] has as its system PRMT3. The assay is described as follows: SAHH-coupled fluorescence assay, inhibition of PRMT3. To be noted: read-out: IC50 [µM] | PRMT3. On the procedure:
A fluorescence-based SAHH-coupled assay was applied to study the inhibition activity of all synthesized compounds on PRMT 1 and 3.
The PRMT3 methylation assay was performed under the following conditions in a final well volume of 100 μL: 20 mM Tris (pH=7.5), 0.01% Triton X-100, 5 μM SAHH, 0.25 μM PRMT3, 30 μM AdoMet, and 15 μM ThioGlo4. […] Fluorescence was monitored on a BMG CLARIOstar microplate reader with excitation 380 nm and emission 505 nm. Data were processed by using GraphPad Prism software 8.0. All experiments were performed in duplicate.
(§1) Next, the inhibition activity of the library was investigated for five PRMT members from type I PRMTs.
The PRMT3 methylation assay was performed under the following conditions in a final well volume of 100 μL: 20 mM Tris (pH=7.5), 0.01% Triton X-100, 5 μM SAHH, 0.25 μM PRMT3, 30 μM AdoMet, and 15 μM ThioGlo4. […] Fluorescence was monitored on a BMG CLARIOstar microplate reader with excitation 380 nm and emission 505 nm. Data were processed by using GraphPad Prism software 8.0.

The target of assay [2] is PRMT3 (Homo sapiens, UniProt O60678). The assay is described as above. Also on record: PRMT3 (residues 211-531) was cloned into the pET28a-MHL expression vector; tag of the pET28a-MHL vector (not described); made in house; host or cells: Escherichia coli BL21(DE3). Summed up: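 Coupled SAHH/ThioGlo4 fluorescence read-out (ex 380 nm, em 505 nm) of PRMT3 (0.25 μM) methylation with 30 μM AdoMet and 5 μM SAHH. Buffer was 20 mM Tris pH 7.5 with 0.01% Triton X-100. Run in duplicate.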
Chain of PRMT3 (Homo sapiens, UniProt O60678) (O60678 211-531): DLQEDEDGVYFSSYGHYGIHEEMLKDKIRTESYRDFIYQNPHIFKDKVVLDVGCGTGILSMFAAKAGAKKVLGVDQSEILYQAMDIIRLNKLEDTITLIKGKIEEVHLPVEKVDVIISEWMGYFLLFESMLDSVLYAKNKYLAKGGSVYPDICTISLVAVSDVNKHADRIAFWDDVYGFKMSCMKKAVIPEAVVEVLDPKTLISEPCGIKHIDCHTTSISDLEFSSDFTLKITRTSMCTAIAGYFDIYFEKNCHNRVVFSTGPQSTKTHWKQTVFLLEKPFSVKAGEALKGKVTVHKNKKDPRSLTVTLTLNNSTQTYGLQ

The target in another assay is T1, PRMT4 (Homo sapiens, UniProt Q86X55).
T1 sequence (Q86X55 1-608): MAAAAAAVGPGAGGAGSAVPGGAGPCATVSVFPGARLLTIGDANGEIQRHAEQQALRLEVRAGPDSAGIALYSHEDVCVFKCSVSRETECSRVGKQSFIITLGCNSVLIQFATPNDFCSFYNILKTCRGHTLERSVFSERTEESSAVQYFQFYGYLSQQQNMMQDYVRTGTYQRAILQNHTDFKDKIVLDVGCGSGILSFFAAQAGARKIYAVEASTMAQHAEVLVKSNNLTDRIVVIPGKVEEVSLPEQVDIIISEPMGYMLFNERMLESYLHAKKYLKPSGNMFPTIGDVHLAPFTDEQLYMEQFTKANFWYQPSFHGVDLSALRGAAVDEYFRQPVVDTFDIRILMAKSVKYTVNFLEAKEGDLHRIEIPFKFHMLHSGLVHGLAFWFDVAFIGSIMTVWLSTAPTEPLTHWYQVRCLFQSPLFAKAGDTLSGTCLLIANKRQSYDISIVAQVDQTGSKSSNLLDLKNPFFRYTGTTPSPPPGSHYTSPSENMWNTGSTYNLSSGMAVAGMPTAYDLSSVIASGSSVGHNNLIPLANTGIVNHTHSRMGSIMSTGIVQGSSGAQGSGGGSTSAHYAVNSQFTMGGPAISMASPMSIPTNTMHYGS
In words: radioactive assay (Reaction Biology Corp.), inhibition of PRMT4. On the procedure: as §1
(§2) The PRMT 4, 6 and 8 methylation assays were performed by Reaction Biology corp.

The next assay deals with PRMT6 (Homo sapiens, UniProt Q96LA8). In words: radioactive assay (Reaction Biology Corp.), inhibition of PRMT6. As for the experimental part: as §1, §2
Chain of PRMT6 (Q96LA8 whole entry, species assumed): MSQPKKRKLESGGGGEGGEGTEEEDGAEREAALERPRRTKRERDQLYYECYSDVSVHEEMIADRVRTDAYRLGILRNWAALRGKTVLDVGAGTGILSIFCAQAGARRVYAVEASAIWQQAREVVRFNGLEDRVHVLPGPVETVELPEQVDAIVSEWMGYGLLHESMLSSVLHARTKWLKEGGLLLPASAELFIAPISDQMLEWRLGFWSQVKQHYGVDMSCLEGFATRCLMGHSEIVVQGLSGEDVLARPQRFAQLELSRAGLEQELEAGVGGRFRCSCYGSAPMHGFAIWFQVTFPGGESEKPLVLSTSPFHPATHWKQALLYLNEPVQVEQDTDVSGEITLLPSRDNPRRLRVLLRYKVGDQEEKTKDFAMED
For another assay, the target named is PRMT8 (Homo sapiens, UniProt Q9NR22). The assay is described as follows: radioactive assay (Reaction Biology Corp.), inhibition of PRMT8. As for the experimental part: as §1, §2
Chain of PRMT8 (Q9NR22 whole entry, species assumed): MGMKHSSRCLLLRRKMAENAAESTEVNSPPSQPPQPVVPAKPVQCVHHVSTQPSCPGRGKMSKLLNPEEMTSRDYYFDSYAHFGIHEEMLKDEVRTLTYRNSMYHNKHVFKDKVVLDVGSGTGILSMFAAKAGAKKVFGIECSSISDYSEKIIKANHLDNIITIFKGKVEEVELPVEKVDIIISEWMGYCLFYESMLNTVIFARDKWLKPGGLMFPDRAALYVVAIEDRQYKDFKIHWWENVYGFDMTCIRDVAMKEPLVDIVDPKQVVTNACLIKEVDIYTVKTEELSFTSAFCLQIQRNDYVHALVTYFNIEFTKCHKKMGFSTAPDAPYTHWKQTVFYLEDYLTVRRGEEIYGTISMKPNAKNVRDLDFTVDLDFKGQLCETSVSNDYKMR
The next assay has as its target T2, PRMT1 (Homo sapiens, UniProt Q99873).
T2 construct: made in house
In words: SAHH-coupled fluorescence assay, inhibition of PRMT1. Summed up:
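PRMT1 (0.1 μM) was run with 10 μM AdoMet, 5 μM SAHH and 10 μM ThioGlo4 in 2.5 mM HEPES pH 7.0, 25 mM NaCl, 25 μM EDTA, 50 μM TCEP and 0.01% Triton X-100. Fluorescence (ex 400/em 465 nm) was monitored for 15 min. Assays were done in duplicate.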

SMILES strings stand for the structures. Read-outs that look alike come from different tables or passages of the source.

T2 sequence (Q99873 whole entry, species assumed): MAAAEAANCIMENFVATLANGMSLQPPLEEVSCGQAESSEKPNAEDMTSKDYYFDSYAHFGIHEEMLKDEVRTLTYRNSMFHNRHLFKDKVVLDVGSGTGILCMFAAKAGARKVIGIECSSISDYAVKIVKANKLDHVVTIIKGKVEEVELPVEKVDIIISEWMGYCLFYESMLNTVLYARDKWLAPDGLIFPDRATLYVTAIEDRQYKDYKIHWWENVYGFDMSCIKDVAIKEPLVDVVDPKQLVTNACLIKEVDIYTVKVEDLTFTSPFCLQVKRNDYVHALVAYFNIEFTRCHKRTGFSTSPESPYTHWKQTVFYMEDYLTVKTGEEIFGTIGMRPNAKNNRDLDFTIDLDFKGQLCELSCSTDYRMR

In the case of `N=C(NCCSC[C@H]1O[C@@H](n2cnc3c(N)ncnc32)[C@H](O)[C@@H]1O)NCc1ccccc1` [Compound 5a], the IC50 was found to be 33 ± 4.3 µM in the assay on PRMT3 [1] and 1 ± 0.065 µM at PRMT1 (read-out: IC50[μM] | PRMT1). Moreover, the inhibition at 10 µM against PRMT3 [2] was 57%; at PRMT4, 99%; at PRMT6 it was 93%; on PRMT8, 76%; on PRMT1, 86%. The “fold decrease in PRMT3 inhibition” value at PRMT3 [2] (1d (2C-atom linker) vs II710) amounted to 3 fold.
`Nc1ncnc2c1ncn2[C@@H]1O[C@H](CSCCOc2ccc(-c3ccoc3)cc2)[C@@H](O)[C@H]1O` [Compound 14c]: the inhibition at 10 µM against PRMT3 [2] was determined as 6%; at PRMT4, 17%; on PRMT6, 3%; on PRMT8 it was 39%; on PRMT1, 3%.
As to `Nc1ncnc2c1ncn2[C@@H]1O[C@H](CSCCOc2ccc(-c3ccc(F)c(O)c3)cc2)[C@@H](O)[C@H]1O` [Compound 14d], the inhibition at 10 µM against PRMT3 [2] came to 3%; on PRMT4, 51%; on PRMT6, 18%; at PRMT8 it was 42%; against PRMT1, 16%.
The corresponding values for `Nc1ncnc2c1ncn2[C@@H]1O[C@H](CSCCOc2ccc(-c3cncnc3)cc2)[C@@H](O)[C@H]1O` [Compound 14e] are 16%, 22%, 7%, 28% and 7%.
With `Nc1ncnc2c1ncn2[C@@H]1O[C@H](CSCCOc2ccc(-c3cccc(O)c3)cc2)[C@@H](O)[C@H]1O` [Compound 14f], the inhibition at 10 µM on PRMT3 [2] was 5%; at PRMT4, 62%; at PRMT6, 13%; at PRMT8, 40%; on PRMT1 it was 5%.
Consider `Nc1ncnc2c1ncn2[C@@H]1O[C@H](CSCCOc2ccc(-c3ccccc3O)cc2)[C@@H](O)[C@H]1O` [Compound 14g], for which the inhibition at 10 µM against PRMT3 [2] turned out to be 5%; at PRMT4, 35%; at PRMT6, 10%; on PRMT8 it was 39%; at PRMT1, 5%.
As to `Nc1ncnc2c1ncn2[C@@H]1O[C@H](CSCCOc2ccc(-c3ccncc3)cc2)[C@@H](O)[C@H]1O` [Compound 14h], the inhibition at 10 µM against PRMT3 [2] is 8%; on PRMT4, 48%; on PRMT6 it was 6%; on PRMT8, 15%; at PRMT1, 10%.
With `CCCCNC(=N)NCCCSC[C@H]1O[C@@H](n2cnc3c(NCCCc4ccccc4)ncnc32)[C@H](O)[C@@H]1O` [Compound 19a], the inhibition at 10 µM against PRMT3 [2] turned out to be 14%; on PRMT4, 47%; on PRMT6 it was 84%; at PRMT8, 85%; against PRMT1, 94%. For the same compound, the 50% inhibitory concentration (IC50) on PRMT1 (read-out: IC50 FOR PRMT1) is 0.65 ± 0.062 µM.
With `N=C(NCCCSC[C@H]1O[C@@H](n2cnc3c(NCCCc4ccccc4)ncnc32)[C@H](O)[C@@H]1O)NC1CC1` [Compound 19b], the inhibition at 10 µM against PRMT3 [2] was 13%; at PRMT4, 23%; on PRMT6, 73%; at PRMT8, 69%; at PRMT1, 86%. Also, the half-maximal inhibitory concentration (IC50) on PRMT1 (read-out: IC50 FOR PRMT1) was determined as 1.2 ± 0.052 µM.
Turning to `N=C(NCCCSC[C@H]1O[C@@H](n2cnc3c(NCCCc4ccccc4)ncnc32)[C@H](O)[C@@H]1O)NC1CCC1` [Compound 19c], the inhibition at 10 µM was determined as 8% against PRMT3 [2]; 50% on PRMT4; 93% on PRMT6; 91% on PRMT8; 80% against PRMT1. In addition, the half-inhibitory concentration (IC50) on PRMT1 (read-out: IC50 FOR PRMT1) came to 0.55 ± 0.051 µM.
On to `N=C(NCCCSC[C@H]1O[C@@H](n2cnc3c(NCCCc4ccccc4)ncnc32)[C@H](O)[C@@H]1O)NC1CCCC1` [Compound 19d], for which the inhibition at 10 µM on PRMT3 [2] amounted to 8%; on PRMT4 it was 60%; at PRMT6 it was 91%; on PRMT8, 85%; against PRMT1 it was 90%. Moreover, the IC50 on PRMT1 (read-out: IC50 FOR PRMT1) was 0.59 ± 0.071 µM.
`N=C(NCCCSC[C@H]1O[C@@H](n2cnc3c(NCCCc4ccccc4)ncnc32)[C@H](O)[C@@H]1O)NC1CCCCC1` [Compound 19e]: the inhibition at 10 µM at PRMT3 [2] was 10%; at PRMT4 it was 44%; on PRMT6, 88%; at PRMT8, 79%; against PRMT1, 89%. Moreover, the IC50 at PRMT1 (read-out: IC50 FOR PRMT1) came to 0.75 ± 0.046 µM.
For the compound `N=C(NCCCSC[C@H]1O[C@@H](n2cnc3c(NCCCc4ccccc4)ncnc32)[C@H](O)[C@@H]1O)NCC1CC1` [Compound 19f], the inhibition at 10 µM was 3% against PRMT3 [2]; 36% at PRMT4; 88% on PRMT6; 74% on PRMT8; 76% against PRMT1. For the same compound, on PRMT1 (read-out: IC50 FOR PRMT1), the IC50 came to 0.92 ± 0.091 µM.
Consider `N=C(NCCCN)NCCCSC[C@H]1O[C@@H](n2cnc3c(NCCCc4ccccc4)ncnc32)[C@H](O)[C@@H]1O` [Compound 19i], for which the inhibition at 10 µM on PRMT3 [2] turned out to be 13%; at PRMT4, 37%; on PRMT6 it was 79%; at PRMT8 it was 74%; on PRMT1, 89%. Moreover, the half-inhibitory concentration (IC50) at PRMT1 (read-out: IC50 FOR PRMT1) came out at 1.3 ± 0.066 µM.
As for `N=C(NCCCSC[C@H]1O[C@@H](n2cnc3c(NCCCc4ccccc4)ncnc32)[C@H](O)[C@@H]1O)Nc1ccccc1` [Compound 19j], the inhibition at 10 µM at PRMT3 [2] came to 2%; at PRMT4, 54%; on PRMT6 it was 92%; at PRMT8, 86%; against PRMT1, 83%. The concentration for half-maximal inhibition (IC50) at PRMT1 (read-out: IC50 FOR PRMT1) is 0.46 ± 0.074 µM.
With `N=C(NCCCSC[C@H]1O[C@@H](n2cnc3c(NCCCc4ccccc4)ncnc32)[C@H](O)[C@@H]1O)NCc1ccccc1` [Compound 19k], the inhibition at 10 µM at PRMT3 [2] is 10%; on PRMT4, 44%; on PRMT6, 89%; at PRMT8 it was 83%; on PRMT1, 89%. Moreover, the IC50 on PRMT1 (read-out: IC50 FOR PRMT1) turned out to be 0.48 ± 0.079 µM.
Consider `N=C(NCCCSC[C@H]1O[C@@H](n2cnc3c(NCCCc4ccccc4)ncnc32)[C@H](O)[C@@H]1O)NCCc1ccccc1` [Compound 19l], for which the inhibition at 10 µM came out at 9% at PRMT3 [2]; 26% at PRMT4; 86% on PRMT6; 87% on PRMT8; 90% on PRMT1. Also, the IC50 at PRMT1 (read-out: IC50 FOR PRMT1) stood at 0.5 ± 0.075 µM.
Regarding `N=C(NCCCSC[C@H]1O[C@@H](n2cnc3c(NCCCc4ccccc4)ncnc32)[C@H](O)[C@@H]1O)NCCCc1ccccc1` [Compound 19m], the inhibition at 10 µM on PRMT3 [2] stood at 5%; at PRMT4, 58%; on PRMT6, 83%; at PRMT8 it was 85%; against PRMT1, 87%. Besides, the half-inhibitory concentration (IC50) at PRMT1 (read-out: IC50 FOR PRMT1) is 0.74 ± 0.08 µM.

Usually IC50 stands for the concentration that inhibits the measured activity by half. For orientation: inhibition means the relative decrease from the control value, in per cent.
